Three compounds from article PMC8672371 (Biochemistry, 2021) can be followed below.

The target in one assay is TvVip (Trichoderma virens, UniProt G9MQB8). The assay is described as follows: X-ray crystal structure. In kind it is binding. The following applies: 3.2 Å; complex with SAM; active site.
Assay [1] addresses T1, RnVip (Rattus norvegicus, UniProt O70600, H77A).
T1 sequence (O70600 1-360 H77A): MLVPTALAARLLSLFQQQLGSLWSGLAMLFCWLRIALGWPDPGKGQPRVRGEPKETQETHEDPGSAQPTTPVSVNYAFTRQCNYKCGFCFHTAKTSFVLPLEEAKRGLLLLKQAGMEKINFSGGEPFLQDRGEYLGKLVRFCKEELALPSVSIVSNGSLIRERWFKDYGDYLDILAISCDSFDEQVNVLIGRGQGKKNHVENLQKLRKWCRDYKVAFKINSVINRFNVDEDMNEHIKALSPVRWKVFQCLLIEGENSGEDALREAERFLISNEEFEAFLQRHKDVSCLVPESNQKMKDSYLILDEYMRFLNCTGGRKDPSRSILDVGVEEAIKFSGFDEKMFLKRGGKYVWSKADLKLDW
The assay is described as follows: ddhCTP formation. To be noted: SAM, dithionite. In kind it is biochemical.

The target of another assay is MlVip (Methanofollis liminatans, UniProt J0S9F5). The assay is described as follows: ddhNTP product by LC-MS. In kind it is biochemical. The following applies: SAM, dithionite; labelled compound (deuCTP).
Assay [2] has as its target T2, RnVip (Rattus norvegicus, UniProt O70600, K317A).
T2 sequence (O70600 1-360 K317A): T1 sequence (O70600 1-360 H77A) with A77H, K317A
The assay is described as follows: ddhCTP formation. It counts as biochemical. The following applies: SAM, dithionite.

The target in another assay is NvVip (Nematostella vectensis, UniProt A7RNF3). The assay is described as follows: X-ray crystal structure. It counts as binding. The following applies: 1.42 Å, [4Fe-4S], anaerobic, active site.

Substitutions are numbered along the chain they refer to.

As to `O=c1ccn([C@@H]2O[C@H](COP(=O)(O)OP(=O)(O)OP(=O)(O)O)[C@@H](O)[C@H]2O)c(=O)[nH]1` [UTP], the X-ray crystal structure entry on TvVip was “Crystals of TvVip bound to SAM and UTP exhibited diffraction”.
On to `Nc1ccn([C@@H]2O[C@H](COP(=O)(O)OP(=O)(O)OP(=O)(O)O)[C@@H](O)[C@H]2O)c(=O)n1` [CTP], for which the ddhCTP formation result at RnVip [1] is “We generated the RnVip variant H77A and the MmVip variant H79A”; on RnVip [2], “we generated a lysine to alanine variant in RnVip (K317A”. The “ddhNTP product by LC-MS; deu5'-dA formation” value on MlVip is reported as “only deuCTP was converted to the respective ddhNTP product by MlVip”. In addition, the X-ray crystal structure entry at NvVip (complex with SAM) is “omit maps show strong density for CTP in the catalytic site”.
For `C[S+](CC[C@H](N)C(=O)O)C[C@H]1O[C@@H](n2cnc3c(N)ncnc32)[C@H](O)[C@@H]1O` (stereo partly drawn) [SAM], the X-ray crystal structure entry at NvVip (complex with CTP) is “The asymmetric unit of NvVip contains one protein chain, a 4Fe-4S cluster, CTP, and SAM”.
